The values below come from article PMC7616463, “Peptidic boronic acid Plasmodium falciparum SUB1 inhibitors with improved selectivity over human proteasome” (Journal of medicinal chemistry, 2024).

The term IC50 denotes the concentration needed to halve the response being measured.

For assay [1], the target named is T1, recombinant PfSUB1 (rPfSUB1) (Plasmodium falciparum, UniProt Q8I0V0).
T1 construct: made in house
Kind of assay: PfSUB1 enzyme assay (recombinant PfSUB1, fluorogenic peptide substrate). In kind it is biochemical. As to conditions: for IC50: rPfSUB1, substrate SERA4st1F-6R12 0.1 μM, 5 min preincubation, pH 8.2, fluorescence, duplicate, read-out: IC50, nM PfSUB1 inhibition; for inhibition of rPfSUB1 activity at 1 μM: 1 μM final concentration, typical of duplicate assays. Here is the method:
The proteolytic activity of rPfSUB1 was monitored by the cleavage of the fluorogenic peptidic substrate SERA4st1F-6R12 (Ac-[…]-OH) and has been described previously.[28] Briefly, chymotrypsin treated rPfSUB1 (expressed and purified as described before […] was stored at −80 °C as a 228 U/mL stock in 20 mM Tris−HCl pH 8.2, 150 mM NaCl, 10% glycerol, and diluted for use (1:500) in reaction buffer (20 mM Tris−HCl pH 8.2, 150 mM NaCl, 12 mM CaCl2, 25 mM CHAPS). Peptidic boronic acid inhibitors were dissolved in 100% DMSO at 20 mM, then further diluted in DMSO to generate stock solutions ranging from 500 to 0.01 μM and then used diluted 1:100 in the enzyme reactions. All reactions were performed in wells of white 96-well microwell plates (Nunc); 50 μL diluted rPfSUB1 was preincubated for 5 min with 1 μL each of the serially diluted boronic acid inhibitors, followed by addition of 50 μL substrate solution (0.1 μM final). Subsequent fluorescence increase was continuously monitored using a SpectraMax M5e plate reader and SoftMax Pro-6.3 software, with readings taken every 3 min for 60 min using excitation and emission values of 552 and 580 nm, respectively. […] All experiments were performed in duplicate.

Assay [2] concerns the target T2, human 20S proteasome (H20S), chymotrypsin-like β5 activity (Homo sapiens, UniProt P20618+P28074).
T2 construct: variant as stated: H20S
As to the kind of experiment: Human 20S proteasome kinetic assay (chymotrypsin-like β5 activity). In kind it is biochemical. As to conditions: purified human 20S proteasome, β5 activity, substrate LLVY-R110, fluorescence; duplicate; read-out: IC50, nM H20S inhibition. As for the experimental part: The fluorescent Proteasome substrate LLVY-R110 (ex: 490 nm, Em:525 nm) (#MAK172, Sigma-Aldrich) was used to measure the chymotrypsin-like activity (β5) of the human 20S proteasome and was prepared according to the activity assay kit instructions. Cleavage of this peptide generated intense green fluorescence due to the R110 group and was monitored at 520-530 nm with excitation at 480-500 nm. The purified human 20S proteasome (BML-PW8720-0050, EnzoSciences), stored at 1mg/ml in 20 mM Tris-HCl pH 7.2, 1mM EDTA, 1mM DTT 1mM NaN3, 50% glycerol was diluted in TRIS-buffered saline (TBS, pH 7.4) to an intermediate concentration of 0.44 μM. […] The reactions were performed in white 96-well fluorescent microtiter-plate format (Nunc). The Substrate solution was added first (100 μl), followed by 1 μl of the inhibitor (50 μM intermediate stock) and 1 μl of the H20S proteasome at 0.44 μM. The IC50s were determined for a selection of potent PfSUB1 inhibitors. After sequential dilution of the inhibitors in 100% DMSO, 1 μl of each dilution was used in a 100 μl reaction containing the fluorescent substrate. The reaction was initiated by the addition of 1 μl of the 20S proteasome intermediate stock solution. The fluorescence increase was monitored using a SpectraMax M5e plate reader and SoftMax Pro-6.3 software Measure activity on a plate reader (ex: 490 nm, Em: 525 nm) with the photomultiplier tube (PMT) set to medium with readings every 3 min for one hour. All measurements were done in duplicate. The progress curves were plotted within GraphPad Prism 9.5.0.

T1 sequence (Q8I0V0 218-688): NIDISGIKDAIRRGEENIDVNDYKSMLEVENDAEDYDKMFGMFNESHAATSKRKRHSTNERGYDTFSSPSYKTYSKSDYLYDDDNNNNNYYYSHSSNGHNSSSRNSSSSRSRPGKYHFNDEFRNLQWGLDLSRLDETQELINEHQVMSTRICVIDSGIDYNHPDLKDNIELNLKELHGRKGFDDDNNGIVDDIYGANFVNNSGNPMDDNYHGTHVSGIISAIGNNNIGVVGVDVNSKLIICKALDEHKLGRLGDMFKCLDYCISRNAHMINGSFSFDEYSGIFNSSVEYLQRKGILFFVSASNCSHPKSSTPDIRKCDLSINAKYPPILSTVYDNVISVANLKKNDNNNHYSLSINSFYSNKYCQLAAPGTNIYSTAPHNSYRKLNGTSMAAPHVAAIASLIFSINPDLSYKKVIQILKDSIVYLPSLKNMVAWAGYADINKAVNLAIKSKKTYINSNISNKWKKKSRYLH

In the case of `CC(=O)N[C@H](C(=O)N[C@@H](CC(C)C)C(=O)NCC(=O)N[C@@H](C)B(O)O)C1CCCC1` [2g, ((2R,8S,11S)-11-cyclopentyl-8-isobutyl-4,7,10,13-tetraoxo-3,6,9,12-tetraazatetra-decan-2-yl)boronic acid], the IC50 in assay [1] was found to be 7.8 ± 0.1 nM.
Regarding `CC(C)C[C@H](NC(=O)[C@H](CCc1ccccc1)NC(=O)CN1CCOCC1)C(=O)N[C@@H](Cc1ccccc1)C(=O)N[C@@H](CC(C)C)C(=O)[C@@]1(C)CO1` [carfilzomib, reference compound], in assay [1], the “inhibition of rPfSUB1 activity at 1 μM” value was “lack of inhibition”.
Consider `CC(=O)N[C@H](C(=O)N[C@@H](CC1CCCC1)C(=O)NCC(=O)N[C@@H](C)B(O)O)C1CCCC1` [2c, ((2R,8S,11S)-11-cyclopentyl-8-(cyclopentylmethyl)-4,7,10,13-tetraoxo-3,6,9,12-tetra-azatetradecan-2-yl)boronic acid], for which the IC50 in assay [1] is 7.5 ± 0.8 nM.
On the same count and under the same terms, as for “((3S,6S,12R)-6-((S)-sec-butyl)-3-cyclopentyl-1-(3,5-dimethylphenyl)-1,4,7,10-tetra-oxo-2,5,8,11-tetraazatridecan-12-yl)boronic acid [3d]”, the figure is 3.2 ± 0.1 nM.
Consider `CC[C@H](C)[C@H](NC(=O)[C@@H](NC(=O)c1ccc2ccccc2n1)C1CCCC1)C(=O)NCC(=O)N[C@@H](C)B(O)O` [3a, ((3S,6S,12R)-6-((S)-sec-butyl)-3-cyclopentyl-1,4,7,10-tetraoxo-1-(quinolin-2-yl)-2,5,8,11-tetraazatridecan-12-yl)boronic acid], for which the IC50 was determined as 9.5 ± 0.6 nM in assay [1] and 6 ± 0.5 nM in assay [2].
Consider `CC(=O)N[C@H](C(=O)N[C@H](C(=O)NCC(=O)N[C@@H](C)B(O)O)C(C)(C)C)C1CCCC1` [2a, ((2R,8S,11S)-8-(tert-butyl)-11-cyclopentyl-4,7,10,13-tetraoxo-3,6,9,12-tetraazatetradecan-2-yl)boronic acid], for which the IC50 in assay [1] was found to be 2.1 ± 0.1 nM.
With `CC(=O)N[C@H](C(=O)N[C@H](C(=O)NCC(=O)N[C@@H](C)B(O)O)c1ccccc1)C1CCCC1` [2b, ((2R,8S,11S)-11-cyclopentyl-4,7,10,13-tetraoxo-8-phenyl-3,6,9,12-tetraazatetradecan-2-yl)boronic acid], the IC50 in assay [1] is 2.8 ± 0.1 nM.
Still for that read-out and setting: as for `CC[C@H](C)[C@H](NC(=O)[C@@H](NC(=O)C(C)C)C1CCCC1)C(=O)NCC(=O)N[C@@H](C)B(O)O` [3e, ((2R,8S,11S)-8-((S)-sec-butyl)-11-cyclopentyl-14-methyl-4,7,10,13-tetraoxo-3,6,9,12-tetraazapentadecan-2-yl)boronic acid], the figure is 3.9 ± 0.3 nM.
On the same count and under the same terms, as for `CC[C@H](C)[C@H](NC(=O)[C@@H](NCc1ccccc1)C1CCCC1)C(=O)NCC(=O)N[C@@H](C)B(O)O` [3i, ((3S,6S,12R)-6-((S)-sec-butyl)-3-cyclopentyl-4,7,10-trioxo-1-phenyl-2,5,8,11-tetra-azatridecan-12-yl)boronic acid], the figure is 23.2 ± 0.3 nM.
For the compound `CC[C@H](C)[C@H](NC(=O)[C@@H](NC(=O)c1ccc2ccccc2n1)C1CCCC1)C(=O)NCC(=O)N[C@H]1CCC(=O)OB1O` [4a, N-((S)-1-cyclopentyl-2-(((2S,3S)-1-((2-(((R)-2-hydroxy-6-oxo-1,2-oxaborinan-3-yl)amino)-2-oxoethyl)amino)-3-methyl-1-oxopentan-2-yl)amino)-2-oxoethyl) quinoline-2-carboxamide], the values for the IC50 in assay [1] and in assay [2] were 36.1 ± 2.4 nM and 410 ± 5 nM, respectively.
On to `CC[C@H](C)[C@H](NC(=O)[C@@H](NC(=O)C1CCC1)C1CCCC1)C(=O)NCC(=O)N[C@@H](C)B(O)O` [3g, ((3S,6S,12R)-6-((S)-sec-butyl)-1-cyclobutyl-3-cyclopentyl-1,4,7,10-tetraoxo-2,5,8,11-tetraazatridecan-12-yl)boronic acid], for which, in assay [1], the IC50 amounted to 2 ± 0.1 nM.
Same read-out and setting: to `CC[C@H](C)[C@H](NC(=O)[C@@H](NC(=O)C(C)(C)C)C1CCCC1)C(=O)NCC(=O)N[C@@H](C)B(O)O` [3f, ((2R,8S,11S)-8-((S)-sec-butyl)-11-cyclopentyl-14,14-dimethyl-4,7,10,13-tetraoxo-3,6,9,12-tetraazapentadecan-2-yl)boronic acid] belongs 3.9 ± 0.3 nM.
In the case of `CC(=O)N[C@H](C(=O)N[C@H](C(=O)NCC(=O)N[C@@H](C)B(O)O)[C@@H](C)O)C1CCCC1` [1b], the IC50 in assay [2] amounted to 35.4 ± 1.7 nM.
For the compound `CC(=O)N[C@H](C(=O)N[C@@H](CC(C)(C)C)C(=O)NCC(=O)N[C@@H](C)B(O)O)C1CCCC1` [2e, ((2R,8S,11S)-11-cyclopentyl-8-neopentyl-4,7,10,13-tetraoxo-3,6,9,12-tetraazatetra-decan-2-yl)boronic acid], the IC50 in assay [1] turned out to be 43.5 ± 2.7 nM. Besides, the “fold decreased PfSUB1 potency compared to homologue 2a” value in assay [1] (rPfSUB1 IC50 vs 2a) is ~ 20 fold.
With `CC[C@H](C)[C@H](NC(=O)[C@@H](NC(=O)c1cccc(-c2ccccc2)n1)C1CCCC1)C(=O)NCC(=O)N[C@@H](C)B(O)O` [3b, ((3S,6S,12R)-6-((S)-sec-butyl)-3-cyclopentyl-1,4,7,10-tetraoxo-1-(6-phenylpyridin-2-yl)-2,5,8,11-tetraazatridecan-12-yl)boronic acid], the IC50 was 9.3 ± 0.2 nM in assay [1] and 7 ± 0.1 nM in assay [2].
Take `CC[C@H](C)[C@H](NC(=O)[C@@H](NC(=O)c1cc(C)cc(C)c1)C1CCCC1)C(=O)NCC(=O)N[C@@H](C)B(O)O` [3c, ((3S,6S,12R)-6-((S)-sec-butyl)-3-cyclopentyl-1-(3,5-dimethylphenyl)-1,4,7,10-tetra-oxo-2,5,8,11-tetraazatridecan-12-yl)boronic acid]: in assay [1], the IC50 worked out at 6.9 ± 0.3 nM.
On the same count and under the same terms, to `CC[C@H](C)[C@H](NC(=O)[C@@H](NCc1ccccn1)C1CCCC1)C(=O)NCC(=O)N[C@@H](C)B(O)O` [3j, ((3S,6S,12R)-6-((S)-sec-butyl)-3-cyclopentyl-4,7,10-trioxo-1-(pyridin-2-yl)-2,5,8,11-tetraazatridecan-12-yl)boronic acid] belongs 71 ± 6.8 nM; to `CC(=O)N[C@H](C(=O)N[C@@H](CC1CCCCC1)C(=O)NCC(=O)N[C@@H](C)B(O)O)C1CCCC1` [2d, ((2R,8S,11S)-8-(cyclohexylmethyl)-11-cyclopentyl-4,7,10,13-tetraoxo-3,6,9,12-tetra-azatetradecan-2-yl)boronic acid], 6.7 ± 0.3 nM.
As to `CC(C)C[C@H](NC(=O)CNC(=O)c1cc(Cl)ccc1Cl)B(O)O` [ixazomib, reference compound], the “inhibition of rPfSUB1 activity at 1 μM” value in assay [1] is listed as “lack of inhibition”.
For `CC(C)C[C@H](NC(=O)[C@H](Cc1ccccc1)NC(=O)c1cnccn1)B(O)O` [5a, bortezomib, reference compound], the “inhibition of rPfSUB1 activity at 1 μM” value is “Non inhibitory^b” in assay [1] and “lack of inhibition” in assay [1] (listed as bortezomib).
As to `CC[C@H](C)[C@H](NC(=O)[C@@H](NC(C)=O)C1CCCC1)C(=O)NCC(=O)N[C@@H](C)B(O)O` [2f, ((2R,8S,11S)-8-((S)-sec-butyl)-11-cyclopentyl-4,7,10,13-tetraoxo-3,6,9,12-tetraaza-tetradecan-2-yl)boronic acid], the IC50 in assay [1] was 5.4 ± 0.1 nM.
Same read-out and setting: as for `CC(=O)N[C@H](C(=O)N[C@@H](Cc1ccccc1)C(=O)NCC(=O)N[C@@H](C)B(O)O)C1CCCC1` [2h, ((2R,8S,11S)-8-benzyl-11-cyclopentyl-4,7,10,13-tetraoxo-3,6,9,12-tetraazatetradecan-2-yl)boronic acid], the figure is 6.9 ± 2.6 nM.
Same read-out and setting: to `CC[C@H](C)[C@H](NC(=O)[C@@H](NS(=O)(=O)c1nccs1)C1CCCC1)C(=O)NCC(=O)N[C@@H](C)B(O)O` [3h, ((R)-1-(2-((2S,3S)-2-((S)-2-cyclopentyl-2-(thiazole-2-sulfonamido)acetamido)-3-methylpentanamido)acetamido)ethyl)boronic acid] belongs 3.4 ± 0.3 nM.
